Data on twelve molecules can be found in patent publication US11345708B2, “Substituted imidazo[1,2-a]imidazoles as modulators of metabotropic glutamate receptor 4 activity” (Hoffmann-La Roche Inc., priority 2017, dated 2022).

Experiment [1] relates to mice. As to conditions: mice treated with MPTP; cited from earlier work.
Another experiment deals with rats. The settings on record: cited from earlier work.
The subject of experiment [2] is mice. As to conditions: reported by Addex 2010; cited from earlier work.
The test system of experiment [3] is mice. As to conditions: reported by Addex 2010; cited from earlier work. This is another data set of the same source.
Another experiment addresses T1, human mGlu4 receptor (Homo sapiens, UniProt Q14833).
T1 construct: expressed in transfected cells; host or cells: HEK-293 (monoclonal, stably transfected)
Description: Ca2+ mobilization in vitro assay on recombinant human mGlu4 expressed in HEK293 cells. Type of experiment: cell-based. The settings on record: HEK-293 cells stably expressing human mGlu4; L-AP4 added at EC20; Fluo-4 fluorescence; read-out: EC50 (uM) mGlu4 PAM. The procedure: Determination of EC50 Values Using a Ca2+ Mobilization In Vitro Assay on Recombinant Human mGlu4 Expressed in HEK293 Cells:
A monoclonal HEK-293 cell line stably transfected with a cDNA encoding for the human mGlu4 receptor was generated; for the work with mGlu4 Positive Allosteric Modulators (PAMs), a cell line with low receptor expression levels and low constitutive receptor activity was selected to allow the differentiation of agonistic versus PAM activity. Cells were cultured according to standard protocols (Freshney, 2000) in Dulbecco's Modified Eagle Medium with high glucose supplemented with 1 mM glutamine, 10% (vol/vol) heat-inactivated bovine calf serum, Penicillin/Streptomycin, 50 μg/ml hygromycin and 15 μg/ml blasticidin (all cell culture reagents and antibiotics from Invitrogen, Basel, Switzerland).
About 24 hrs before an experiment, 5×10^4 cells/well were seeded in poly-D-lysine coated, black/clear-bottomed 96-well plates. The cells were loaded with 2.5 μM Fluo-4 AM in loading buffer (1×HBSS, 20 mM HEPES) for 1 hr at 37° C. and washed five times with loading buffer. The cells were transferred into a Functional Drug Screening System 7000 (Hamamatsu, Paris, France), and 11 half logarithmic serial dilutions of test compound at 37° C. were added and the cells were incubated for 10-30 min. with on-line recording of fluorescence. Following this pre-incubation step, the agonist (2S)-2-amino-4-phosphonobutanoic acid (L-AP4) was added to the cells at a concentration corresponding to EC20 with on-line recording of fluorescence; in order to account for day-to-day variations in the responsiveness of cells, the EC20 of L-AP4 was determined immediately ahead of each experiment by recording of a full dose-response curve of L-AP4.
Responses were measured as peak increase in fluorescence minus basal (i.e. fluorescence without addition of L-AP4), normalized to the maximal stimulatory effect obtained with saturating concentrations of L-AP4. Graphs were plotted with the % maximal stimulatory using XLfit, a curve fitting program that iteratively plots the data using Levenburg Marquardt algorithm. The single site competition analysis equation used was y=A+((B−A)/(1+((x/C)D))), where y is the % maximal stimulatory effect, A is the minimum y, B is the maximum y, C is the EC50, x is the log 10 of the concentration of the competing compound and D is the slope of the curve (the Hill Coefficient). From these curves the EC50 (drug concentration at which 50% of the maximal receptor activation was achieved), the Hill coefficient as well as the maximal response in % of the maximal stimulatory effect obtained with saturating concentrations of L-AP4 were calculated (see Fig. 1).
A depression of the signal observed after addition of the EC20 concentration of L-AP4 was indicative of an inhibitory activity of the test compound.
In general terms: Calcium flux is commonly read through the fluorescence of an indicator in the cells.

The test system of another experiment is rodent. The settings on record: 6-OHDA rodent model of PD; cited from earlier work.

T1 sequence (Q14833 33-912): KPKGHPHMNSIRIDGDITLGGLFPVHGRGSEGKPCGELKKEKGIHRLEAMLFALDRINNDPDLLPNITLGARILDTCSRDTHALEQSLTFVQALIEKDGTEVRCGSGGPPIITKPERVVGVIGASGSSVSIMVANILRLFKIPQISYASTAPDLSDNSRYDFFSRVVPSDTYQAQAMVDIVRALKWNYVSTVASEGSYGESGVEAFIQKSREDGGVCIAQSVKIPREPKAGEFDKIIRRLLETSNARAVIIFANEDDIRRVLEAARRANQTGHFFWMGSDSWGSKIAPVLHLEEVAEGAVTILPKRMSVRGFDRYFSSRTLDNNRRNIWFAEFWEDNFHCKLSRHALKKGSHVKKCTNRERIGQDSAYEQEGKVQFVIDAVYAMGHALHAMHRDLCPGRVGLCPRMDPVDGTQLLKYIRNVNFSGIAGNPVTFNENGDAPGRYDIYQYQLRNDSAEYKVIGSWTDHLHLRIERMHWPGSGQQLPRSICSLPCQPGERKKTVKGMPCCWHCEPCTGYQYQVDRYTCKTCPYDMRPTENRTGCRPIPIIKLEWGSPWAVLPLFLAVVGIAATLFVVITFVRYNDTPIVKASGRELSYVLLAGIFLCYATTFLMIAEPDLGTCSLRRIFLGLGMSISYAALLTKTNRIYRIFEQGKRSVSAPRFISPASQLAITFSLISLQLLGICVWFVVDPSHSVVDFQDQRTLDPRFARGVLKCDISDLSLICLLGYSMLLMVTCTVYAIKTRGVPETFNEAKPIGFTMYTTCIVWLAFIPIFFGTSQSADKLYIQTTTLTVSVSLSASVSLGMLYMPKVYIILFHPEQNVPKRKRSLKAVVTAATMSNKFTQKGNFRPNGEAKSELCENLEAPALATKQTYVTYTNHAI

Turning to `O=C(Nc1ccccc1)C12CC1/C(=N\O)c1ccccc1O2` (single isomer, unassigned; (-)) [(−)-PHCCC], the nigrostriatal degeneration entry in the experiment with mice [1] is “reduced nigrostriatal degeneration”. For the molecule `Cc1ccnc(Nc2nc(-c3cn[nH]c3)c(C)s2)n1` [ADX88178], the “profile in rat EPM test” value in the experiment with rats (rat, after oral dosing) is reported as “anxiolytic-like profile”. Moreover, the “activity in EPM” value is “active” in the experiment with rats (rats, reported by Addex 2010) and “active” in the experiment on mice [2]. Besides, the “activity in marble burying test” value in the experiment on mice [3] was “active”. As for `Cc1cnc2n1C1(CC1)C(=O)N2c1c(F)cc(C#Cc2cccnc2)cc1F` [Example 49, 7′-[2,6-difluoro-4-[2-(3-pyridyl)ethynyl]phenyl]-3′-methyl-spiro[cyclopropane-1,5′-imidazo[1,2-a]imidazole]-6′-one], the EC50 on human mGlu4 receptor is 0.829 µM. Take `N[C@@H](CCP(=O)(O)O)C(=O)O` [L-AP4, (2S)-2-amino-4-phosphonobutanoic acid]: the neuroprotection entry in the experiment on rodent is reported as “neuroprotective effects”. With `O=C1N(c2c(F)cc(C#Cc3ccccc3)cc2F)c2ncc(-c3ccncn3)n2C12CC2` [Example 18, 3′-[2,6-Difluoro-4-(2-phenylethynyl)phenyl]-6′-(pyrimidin-4-yl)-2′,3′-dihydrospiro[cyclopropane-1,1′-imidazo-[1,2-a][1,3]diazole]-2′-one], the EC50 on human mGlu4 receptor is 0.361 µM. Take `O=C(Nc1cc(F)c(N2C(=O)C3(CC3)n3c(-c4ccccn4)cnc32)c(F)c1)c1ccccn1` [Example 11, N-[3,5-difluoro-4-[6′-oxo-3′-(2-pyridyl)spiro[cyclopropane-1,5′-imidazo[1,2-a]imidazole]-7′-yl]phenyl]pyridine-2-carboxamide]: the EC50 on human mGlu4 receptor was determined as 0.059 µM. In the case of `O=C(Nc1cc(F)c(N2C(=O)C3(CC3)n3c(-c4ccncn4)cnc32)c(F)c1)c1ccccn1` [Example 13, N-[3,5-difluoro-4-(6′-oxo-3′-pyrimidin-4-yl-spiro[cyclopropane-1,5′-imidazo[1,2-a]imidazole]-7′-yl)phenyl]pyridine-2-carboxamide], the EC50 at human mGlu4 receptor was determined as 0.077 µM. With `Cn1ccc(-c2cnc3n2C2(CC2)C(=O)N3c2c(F)cc(-c3ccc(C(C)(F)F)cc3)cc2F)n1` [Example 25, 7′-[4-[4-(1,1-difluoroethyl)phenyl]-2,6-difluoro-phenyl]-3′-(1-methylpyrazol-3-yl)spiro[cyclopropane-1,5′-imidazo[1,2-a]imidazole]-6′-one], the concentration giving a half-maximal response (EC50) on human mGlu4 receptor was determined as 0.1 µM.

For the molecule `CC(F)(F)c1ccc(-c2cc(F)c(N3C(=O)C4(CC4)n4ccnc43)c(F)c2)cc1` [Example 6, 1′-(4′-(1,1-difluoroethyl)-3,5-difluoro-[1,1′-biphenyl]-4-yl)spiro[cyclopropane-1,3′-imidazo[1,2-a]imidazol]-2′(1′H)-one], the half-maximal effective concentration (EC50) at human mGlu4 receptor worked out at 0.383 µM. Consider `Cc1cnc2n1C1(CC1)C(=O)N2c1c(F)cc(C#Cc2ccccc2)cc1F` [Example 47, 3-[2,6-Difluoro-4-(2-phenylethynyl)phenyl]-6-methyl-2,3-dihydrospiro[[1,3]diazolo[1,2-a]imidazole-1,1′-cyclopropane]-2-one], for which the EC50 on human mGlu4 receptor stood at 0.181 µM.

Take `O=C(Nc1cc(F)c(N2C(=O)C3(CC3)n3ccnc32)c(F)c1)c1ccccn1` [Example 7, N-[3,5-difluoro-4-(6′-oxospiro[cyclopropane-1,5′-imidazo[1,2-a]imidazole]-7′-yl)phenyl]pyridine-2-carboxamide]: the EC50 at human mGlu4 receptor was 0.541 µM.

Turning to `CC(O)c1cnc2n1C1(CC1)C(=O)N2c1c(F)cc(NC(=O)c2ccccn2)cc1F` (stereo not drawn) [Example 57, N-[3,5-difluoro-4-[3′-(1-hydroxyethyl)-6′-oxo-spiro[cyclopropane-1,5′-imidazo[1,2-a]imidazole]-7′-yl]phenyl]pyridine-2-carboxamide], the concentration giving a half-maximal response (EC50) at human mGlu4 receptor worked out at 0.572 µM.

Broadly, the EC50 is the concentration that produces a half-maximal response.
